Values quoted from earlier work as cited in patent publication EP3027215B1, “POWDER FORMULATION OF VALGANCICLOVIR” (Ali Raif Ilaç Sanayi ve Ticaret Anonim Sirketi, priority 2013, dated 2015).

How the values were obtained:
[1] = solid form, stored under room temperature conditions
[2] = at pH 7.0

physical, chemical, and light stability [1]: acceptable
n-octanol-water partition coefficient [2]: 0.0095
Structure (SMILES): CC(C)[C@H](N)C(=O)OCC(CO)OCn1cnc2c(=O)[nH]c(N)nc21.Cl (stereo partly drawn) [Valganciclovir hydrochloride, L-Valine, 2-[(2-amino-1,6-dihydro-6-oxo-9H-purin-9-yl)methoxy]-3-hydroxypropyl ester, monohydrochloride]
